According to patent US20220204497A1, “NOVEL COMPOUND HAVING ANTICANCER ACTIVITY, AND METHOD FOR PRODUCING SAME” (MEDICINAL BIOCONVERGENCE RESEARCH CENTER, priority 2019, published 2022):

Experiments:
[1] = tested on: A549 cells; experiment: Cell viability by MTT method in A549 cells; format: cell-based; set-up: concentration or dose not given beside the values; conditions: 72 hours treatment
[2] = target: T1, AIMP2-DX2 (Homo sapiens, UniProt Q13155); experiment: DX2-nanoluciferase assay (DX2 expression change) in transfected A549 cells; conditions: for inhibition at 40 µM / inhibition at 10 µM: A549, 4 h; for inhibition at 40 µM: read-out: DX-Nanoluciferase activity (40 μM), 40 μM, 4 hours treatment, A549 cells transfected with nanoluciferase-DX2; for inhibition at 40 µM / DX-Nanoluciferase activity (40 μM): inhibitory effect on AIMP2-DX2 expression; for inhibition at 10 µM: read-out: DX-Nanoluciferase activity (10 μM), 10 μM, 4 hours treatment, A549 cells transfected with nanoluciferase-DX2
T1 sequence (Q13155 1-251 isoform Q13155-2): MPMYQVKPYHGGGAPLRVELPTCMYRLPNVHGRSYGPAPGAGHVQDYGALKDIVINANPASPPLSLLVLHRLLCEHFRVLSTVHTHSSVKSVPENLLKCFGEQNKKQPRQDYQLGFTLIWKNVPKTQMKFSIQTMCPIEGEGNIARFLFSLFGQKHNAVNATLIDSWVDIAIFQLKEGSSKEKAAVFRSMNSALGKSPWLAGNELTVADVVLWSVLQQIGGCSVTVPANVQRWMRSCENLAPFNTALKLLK
Method: After cloning DX2 into a plasmid expressing nanoluciferase, the plasmid was transfected into A549 cells. Transfected cells were seeded 1×10^4 per well in a 96-well plate and stabilized for 12 hours. […] Cell viability was measured by the MTT method after 72 hours of treatment with each concentration of the compound in A549 cells.

[3] = 4 hours treatment, A549 cells transfected with nanoluciferase-DX2

Row | SMILES | Cell Viability (% inhibition) (A549) [1] | inhibition at 40 µM [2] | inhibition at 10 µM [2] | DX-Nanoluciferase activity (10 μM) ([2]; 10 μM, 4 hours treatment, A549 cells transfected with nanoluciferase-DX2) | DX-Nanoluciferase activity (40 μM) [2, 3]
1 | Cc1ccc(S(=O)(=O)N[C@@H](CC(C)C)C(=O)Nc2ccc(N3CCC(C)CC3)nc2)cc1 [Compound 9, (S)-4-Methyl-2-(4-methylphenylsulfonamido)-N-(6-(4-methylpiperidin-1-yl)pyridin-3-yl)pentanamide] | 78.3% | 18.3% | – | – | –
2 | COc1ccc(S(=O)(=O)N[C@@H](Cc2c[nH]c3ccccc23)C(=O)Nc2ccc(N3CCOCC3)cc2)cc1 [Compound 80, (S)-3-(1H-indol-3-yl)-2-(4-methoxyphenylsulfonamido)-N-(4-morpholinophenyl)propanamide] | 38.64 ± 1.03% | 44.9 ± 13.3% | – | – | –
3 | CON(C)C(=O)[C@H](Cc1c[nH]c2ccccc12)NS(=O)(=O)c1ccc(C)cc1 [Compound 104, (S)-3-(1H-indol-3-yl)-N-methoxy-N-methyl-2-(4-methylphenylsulfonamido)propanamide] | 6.26 ± 7.67% | 64.3 ± 5.96% | – | – | –
4 | CC(C)C[C@H](NC(=O)c1ccc2c(c1)OCO2)C(=O)Nc1ccc(N2CCOCC2)cc1 [Compound 60, (S)—N-(4-Methyl-1-(4-morpholinophenylamino)-1-oxopentan-2-yl)benzo[d][1,3]dioxole-5-carboxamide] | 9.46 ± 9.67% | 35.7 ± 10.2% | – | – | –
5 | Cc1ccc(S(=O)(=O)N[C@@H](CC(C)C)C(=O)N2CCC[C@@H]2CO)cc1 [Compound 6, N—((S)-1-((R)-2-(hydroxymethyl)pyrrolidin-1-yl)-4-methyl-1-oxopentan-2-yl)-4-methylbenzenesulfonamide] | 15.98% | 39.9 ± 7.4% | – | – | –
6 | COc1ccc(-c2cc(NC(=O)[C@H](CC(C)C)NS(=O)(=O)c3ccc(C)cc3)no2)cc1 [Compound 88, (S)—N-(5-(4-methoxyphenyl)isoxazol-3-yl)-4-methyl-2-(4-methylphenylsulfonamido)pentanamide] | 46.96 ± 4.60% | 57 ± 8.83% | – | – | –
7 | Cc1ccc(S(=O)(=O)N[C@@H](Cc2c[nH]c3ccccc23)C(=O)Nc2ccc(N3CCNCC3)cc2)cc1 [Compound 124, (S)-3-(1H-indol-3-yl)-2-(4-methylphenylsulfonamido)-N-(4-(piperazin-1-yl)phenyl)propanamide] | 16.44 ± 18.56% | – | 20.9 ± 9.8% | – | –
8 | Cc1ccc(S(=O)(=O)N[C@@H](Cc2c[nH]c3ccccc23)C(=O)O)cc1 [Compound 119, (S)-3-(1-Indol-3-yl)-2-(4-methylphenylsulfonamido)propanoic acid] | 1.59 ± 8.71% | – | – | 14.92 ± 10.18 | –
9 | Cc1ccc(S(=O)(=O)N[C@@H](Cc2c[nH]c3ccccc23)C(=O)Nc2ncc(N3CCOCC3)s2)cc1 [Compound 71, (S)-3-(1H-indol-3-yl)-2-(4-methylphenylsulfonamido)-N-(5-morpholinothiazol-2-yl)propan amide] | 72.71 ± 0.97% | – | – | – | 54.64 ± 13.30
10 | O=C(NCCc1ccc(F)cc1)[C@H](Cc1c[nH]c2ccccc12)NS(=O)(=O)c1ccc(Br)cc1 [Compound 198, (S)-2-(4-Bromophenylsulfonamido)-N-(4-fluorophenethyl)-3-(1H-indol-3-yl)propanamide] | 82.05 ± 0.64% | – | 44.2 ± 8.7% | – | –
11 | Cc1cc(C)n(C(=O)[C@H](Cc2c[nH]c3ccccc23)NS(=O)(=O)c2ccc(Br)cc2)n1 [Compound 184, (S)-4-Bromo-N-(1-(3,5-dimethyl-1H-pyrazol-1-yl)-3-(1H-indol-3-yl)-1-oxopropan-2-yl)benzenesulfonamide] | −24.64 ± 2.77% | – | 78.4% | – | –
12 | CON(C)C(=O)[C@H](CC(C)C)NS(=O)(=O)c1ccc(C)cc1 [Compound 103, (S)—N-methoxy-N,4-dimethyl-2-(4-methylphenylsulfonamido)pentanamide] | −5.00 ± 6.69% | 63.7 ± 14.3% | – | – | –
13 | Cc1ccc(S(=O)(=O)N[C@H](CC(C)C)C(=O)N2CCOCCOCCOCC2)cc1 [Compound 4, (R)-4-methyl-N-(4-methyl-1-oxo-1-(1,4,7-trioxa-10-azacyclododecan-10-yl)-Pentan-2-yl)benzenesulfonamide] | 15.11% | 10.7 ± 12.8% | – | – | –
14 | Cc1ccc(S(=O)(=O)N[C@@H](CC(C)C)C(=O)Nc2ncc(N3CCOCC3)s2)cc1 [Compound 86, (S)-4-Methyl-2-(4-methylphenylsulfonamido)-N-(5-morpholinothiazol-2-yl)pentanamide] | 20.70 ± 1.43% | 37.7 ± 6.09% | – | – | –
15 | COc1cc(N2CCOCC2)ccc1NC(=O)[C@H](Cc1c[nH]c2ccccc12)NS(=O)(=O)c1ccc(C)cc1 [Compound 123, (S)-3-(1H-indol-3-yl)-N-(2-methoxy-4-morpholinophenyl)-2-(4-methylphenylsulfonamido)propanamide] | 34.01 ± 10.45% | – | 22.4 ± 11.8% | – | –
16 | Cc1ccc(S(=O)(=O)NC2(C(=O)N3CCOCC3)CCCCC2)cc1 [Compound 156, 4-Methyl-N-(1-(morpholine-4-carbonyl)cyclohexyl)benzenesulfonamide] | 13.51 ± 2.04% | -0.2 ± 6.6% | – | – | –
17 | Cc1ccc(S(=O)(=O)N[C@@H](CC(C)C)C(=O)Nc2ccc(N3C[C@@H](C)O[C@@H](C)C3)nc2)cc1 [Compound 13, (S)—N-(6-((2S,6R)-2,6-dimethylmorpholino)pyridin-3-yl)-4-methyl-2-(4-methylphenylsulfonamido)pentanamide] | 14.99% | 51.3 ± 4% | – | – | –
18 | CC(C)C[C@H](NS(=O)(=O)c1cccc(N)c1)C(=O)N1CCOCC1 [Compound 20, (S)-3-amino-N-(4-methyl-1-morpholino-1-oxopentan-2-yl)benzenesulfonamide] | 24.57% | 31 ± 9.9% | – | – | –
19 | CC[C@H](C)[C@H](NS(=O)(=O)c1ccc(C)cc1)C(=O)Nc1ccc(N2CCOCC2)cc1 [Compound 43, (2S,3S)-3-methyl-2-(4-methylphenylsulfonamido)-N-(4-morpholinophenyl)pentanamide] | 17.08 ± 7.96% | 42.9 ± 3.9% | – | – | –
20 | CC(C)C[C@H](NC(=O)CCS(=O)(=O)c1ccccc1)C(=O)OCc1ccccc1 [Compound 28, (S)-Benzyl 4-methyl-2-(3-(phenylsulfonyl)propanamido)pentanoate] | 12.43 ± 8.58% | – | – | – | 57.4 ± 8.4
21 | Cc1ccc(S(=O)(=O)N[C@@H](Cc2cn(S(=O)(=O)c3ccc(C)cc3)cn2)C(=O)Nc2ccc(N3CCOCC3)cc2)cc1 [Compound 74, (S)-2-(4-Methylphenylsulfonamido)-N-(4-morpholinophenyl)-3-(1-tosyl-1H-Imidazol-4-yl)propanamide] | 45.34 ± 4.64% | 56.2 ± 14.5% | – | – | –
22 | CC(C)C[C@H](NC(=O)c1ccc2c(c1)OCO2)C(=O)OCc1ccccc1 [Compound 52, (S)-benzyl 2-(benzo[d][1,3]dioxole-5-carboxamido)-4-methylpentanoate] | 64.59 ± 5.15% | -5.6 ± 5.2% | – | – | –
23 | Cc1ccc(S(=O)(=O)N[C@@H](Cc2c[nH]c3ccccc23)C(=O)Nc2ncc(C)s2)cc1 [Compound 112, (S)-3-(1H-indol-3-yl)-2-(4-methylphenylsulfonamido)-N-(5-methylthiazol-2-yl)propanamide] | 15.01 ± 6.55% | 61.5 ± 5.19% | – | – | –
24 | O=C(Nc1ccc(N2CCOCC2)cc1)[C@H](Cc1c[nH]c2ccccc12)NS(=O)(=O)c1ccc([N+](=O)[O-])cc1 [Compound 78, (S)-3-(1H-indol-3-yl)-N-(4-morpholinophenyl)-2-(4-nitrophenylsulfonamido)propanamide] | 67.08 ± 1.45% | 44.5 ± 12.7% | – | – | –
25 | Cc1ccc(S(=O)(=O)N[C@H](C(=O)N2CCOCC2)C(C)C)cc1 [Compound 40, (S)-4-methyl-N-(3-methyl-1-morpholino-1-oxobutan-2-yl)benzenesulfonamide] | −5.41 ± 6.12% | 31.3 ± 10.3% | – | – | –
26 | Cc1ccc(S(=O)(=O)N[C@@H](Cc2ccc(C(=O)c3ccccc3)cc2)C(=O)Nc2ccc(N3CCOCC3)cc2)cc1 [Compound 115, (S)-3-(4-Benzoylphenyl)-2-(4-methylphenylsulfonamido)-N-(4-morpholinophenyl)propanamide] | 0.35 ± 0.67% | – | 2.16 ± 6.66% | – | –
27 | Cc1ccc(S(=O)(=O)N[C@@H](CC(C)C)C(=O)Nc2cc(N3CCC(C)CC3)ncn2)cc1 [Compound 10, (S)-4-methyl-2-(4-methylphenylsulfonamido)-N-(6-(4-methylpiperidin-1-yl)pyrimidin-4-yl)pentanamide] | 72.7% | 1.5% | – | – | –
28 | N#Cc1ccc(-c2csc(NC(=O)[C@H](Cc3c[nH]c4ccccc34)NS(=O)(=O)c3ccc(Br)cc3)n2)cc1 [Compound 192, (S)-2-(4-Bromophenylsulfonamido)-N-(4-(4-cyanophenyl)thiazol-2-yl)-3-(1H-Indol-3-yl)propanamide] | 81.69 ± 2.49% | – | 15.5 ± 3.27% | – | –
